O=C(O)c1cc2ccccc2[nH]1
Conditions	solubility (mole fraction)
in 1,4-dioxane, 286.35 K	0.00276
in 1,4-dioxane, 291.25 K	0.00343
in 1,4-dioxane, 297.05 K	0.00427
in 1,4-dioxane, 301.95 K	0.00476
in 1,4-dioxane, 306.95 K	0.0052
in 1,4-dioxane, 312.15 K	0.00592
in 1,4-dioxane, 317.25 K	0.00636
in 1,4-dioxane, 321.65 K	0.00689
in 1,4-dioxane, 326.55 K	0.00728
in 1,4-dioxane, 331.95 K	0.00791
in 1,4-dioxane, 336.65 K	0.00866
in dichloromethane, 283.15 K	0.000684
in dichloromethane, 287.15 K	0.000724
in dichloromethane, 292.75 K	0.000873
in dichloromethane, 295.65 K	0.00104
in dichloromethane, 299.05 K	0.00119
in dichloromethane, 302.65 K	0.00134
in dichloromethane, 307.25 K	0.00168
in dichloromethane, 313.15 K	0.00224
in ethanol, 278.15 K	0.0569
in ethanol, 283.15 K	0.062
in ethanol, 287.95 K	0.0666
in ethanol, 292.75 K	0.0701
in ethanol, 297.95 K	0.078
in ethanol, 303.05 K	0.0816
in ethanol, 308.35 K	0.0881
in ethanol, 313.25 K	0.0974
in ethanol, 318.65 K	0.102
in ethanol, 324.95 K	0.116
in ethanol, 329.85 K	0.12
in ethanol, 336.25 K	0.135
in ethanol, 342.75 K	0.148
in ethanol, 348.25 K	0.154
in ethanol, 353.15 K	0.165
in ethyl acetate, 284.05 K	0.0433
in ethyl acetate, 290.45 K	0.06
in ethyl acetate, 294.65 K	0.0735
in ethyl acetate, 299.55 K	0.0865
in ethyl acetate, 304.65 K	0.1
in ethyl acetate, 309.35 K	0.108
in ethyl acetate, 313.95 K	0.116
in ethyl acetate, 318.65 K	0.121
in ethyl acetate, 324.35 K	0.128
in ethyl acetate, 328.75 K	0.134
in ethyl acetate, 333.65 K	0.14
in isopropanol, 278.35 K	0.0412
in isopropanol, 285.15 K	0.0525
in isopropanol, 291.05 K	0.0606
in isopropanol, 298.15 K	0.0701
in isopropanol, 305.55 K	0.0855
in isopropanol, 310.15 K	0.0949
in isopropanol, 315.75 K	0.108
in isopropanol, 321.35 K	0.119
in isopropanol, 328.65 K	0.131
in isopropanol, 333.35 K	0.149
in isopropanol, 338.75 K	0.161
in isopropanol, 342.25 K	0.171
in isopropanol, 348.15 K	0.191
in isopropanol, 353.25 K	0.201
in isopropanol, 358.15 K	0.219
in methanol, 278.15 K	0.0679
in methanol, 283.35 K	0.0695
in methanol, 288.95 K	0.0723
in methanol, 293.25 K	0.0752
in methanol, 298.15 K	0.0856
in methanol, 303.35 K	0.0925
in methanol, 307.85 K	0.102
in methanol, 312.95 K	0.118
in methanol, 317.75 K	0.135
in methanol, 323.15 K	0.159
in methanol, 328.25 K	0.189
in methanol, 333.15 K	0.23
in n-butanol, 278.15 K	0.0478
in n-butanol, 285.35 K	0.0538
in n-butanol, 291.05 K	0.0605
in n-butanol, 298.55 K	0.0687
in n-butanol, 305.25 K	0.0758
in n-butanol, 310.75 K	0.0832
in n-butanol, 315.15 K	0.0909
in n-butanol, 321.75 K	0.101
in n-butanol, 328.35 K	0.112
in n-butanol, 333.95 K	0.125
in n-butanol, 338.15 K	0.14
in n-butanol, 342.45 K	0.143
in n-butanol, 348.25 K	0.16
in n-butanol, 353.45 K	0.174
in n-butanol, 358.15 K	0.19
in n-propanol, 278.25 K	0.0437
in n-propanol, 285.45 K	0.0521
in n-propanol, 291.35 K	0.0588
in n-propanol, 298.15 K	0.068
in n-propanol, 305.75 K	0.0801
in n-propanol, 311.25 K	0.088
in n-propanol, 317.75 K	0.0993
in n-propanol, 322.15 K	0.105
in n-propanol, 328.05 K	0.115
in n-propanol, 333.55 K	0.128
in n-propanol, 339.15 K	0.138
in n-propanol, 344.85 K	0.151
in n-propanol, 349.75 K	0.162
in n-propanol, 353.15 K	0.176
in n-propanol, 358.15 K	0.18
in toluene, 287.85 K	0.00052
in toluene, 293.65 K	0.000645
in toluene, 297.95 K	0.000722
in toluene, 302.85 K	0.000786
in toluene, 307.05 K	0.000898
in toluene, 311.55 K	0.000989
in toluene, 313.55 K	0.00104
in toluene, 317.45 K	0.00113
in toluene, 325.15 K	0.00155
in toluene, 337.85 K	0.00295
in toluene, 342.55 K	0.00379
in toluene, 348.25 K	0.00427
in toluene, 360.15 K	0.00642
in water, 293.15 K	6.79e-05
in water, 298.15 K	6.88e-05
in water, 303.15 K	7.03e-05
in water, 308.05 K	7.17e-05
in water, 312.65 K	7.88e-05
in water, 318.15 K	9.36e-05
in water, 323.15 K	0.000115
in water, 328.15 K	0.000149
in water, 333.15 K	0.0002
in water, 338.15 K	0.00028
in water, 343.15 K	0.000409
in water, 348.15 K	0.000616
in water, 353.15 K	0.000962
in water, 358.15 K	0.00155

From BigSolDB 2.1
